Data published in patent publication US4960765A, “Pharmaceutical composition and method for the treatment of colitis ulcerosa and Crohn's disease by oral administration” (priority 1989, dated 1990).
Entries after “also recorded” stand apart in the source; their conditions may differ. Like-named read-outs stand apart in the source and are kept apart here.

How the values were obtained:
[1] = Ileostomy effluent study (5-ASA / 5-AcASA excretion) in ileostomy patients; type: in vivo, human (ileostomy patients); conditions: for detection in ileostomy secretions: first two hours, 500 mg 5-ASA single oral dose; for excretion rate in ileostomy effluents: following hours up to 8 hours after ingestion
Description: DETERMINATION OF 5-[…] BIOLOGICAL FLUIDS […] ILEOSTOMY PATIENTS Six ileostomy patients colectomized because of colitis ulcerosa with intact small bowel were studied. Their distribution as to sex, age, height, body weight, time since colectomy, small bowel transit time (carmine), and acetylator phenotype (v. Fischer and Klotz, op. cit.) (assessed by sulphadimidine) are shown below in talbe I. ILEOSTOMY PATIENTS […] Ileostomy effluents were collected every hour for eight hours (FIGS. 1+2) urine was collected over an 8 hour period and venous blood was drawn at intervals through the first eight hours (FIGS. 3 and 4).

[2] = Urinary excretion in ileostomy patients; type: in vivo, human (ileostomy patients)
Procedure: DETERMINATION OF 5-[…] BIOLOGICAL FLUIDS […] Six ileostomy patients colectomized because of colitis ulcerosa with intact small bowel were studied. Their distribution as to sex, age, height, body weight, time since colectomy, small bowel transit time (carmine), and acetylator phenotype (v. Fischer and Klotz, op. cit.) (assessed by sulphadimidine) are shown below in talbe I. […] Ileostomy effluents were collected every hour for eight hours (FIGS. 1+2) urine was collected over an 8 hour period and venous blood was drawn at intervals through the first eight hours (FIGS. 3 and 4).

[3] = Plasma concentrations in healthy volunteers; type: in vivo, human (healthy volunteers)
Procedure: (§3) Each subject took two 5-ASA tablets, i.e. 500 mg 5-ASA, three times a day for six days, at 8 a.m., 4 p.m. and at midnight except for the first day, where the two first ingestions took place at 9 a.m. and 5 p.m. […] The two tablets at 8 a.m. were taken by the fasting subject. Venous blood samples for determination of 5-ASA and 5-AsASA were drawn at intevals throughout the first day (FIG. 5) and at 7.50 the following five days(i.e. before the 8 a.m. tablets were ingested) (FIG. 6). Twenty-four hour urine and faecal smaples were collected on the 6th day for quantitative determination of 5-ASA and 5-AcASA. EVery day throughout the study peroid of six days a single faecal sample was analgzed qualitatively for the presence of 5-ASA and 5-AcASA.

[4] = Urinary excretion in healthy volunteers; type: in vivo, human (healthy volunteers)
Description: It is the purpose of the clinical studies described below to estimate the bioavailability of a sustained-release type 5-ASA tablet (Pentasea®) of the composition described above in the example by the study of 5-ASA/5-AcASA plasma levels in healthy volunteers as well as the excretion pattern in urine and faces.
(§1) DETERMINATION OF 5-ASA AND 5-AcASA IN BIOLOGICAL FLUIDS
(§2) Procedures for the determination of 5ASA and 5AcASA in ileostomy effluents, feces, urine and blood were based on a newly developed HPLC assay combined with flurescens spectophotometry.
Fourteen healthy persons consented to volunteer. They had no previous or present symptoms or signs of gastrointestinal or other disease apart from uncomplicated appendectomy. There were seven females and seven males. Mean age and age range were for the women 32.4 years and 29-37 years, and for the males 32 years and 24-40 years, respectively. Mean body weight and weight range were for the females 58.6 kg and 53-67 kg, and for the males 70.9 kg and 60-83 kg, respectively. There were eight slow and 6 fast acetylators.
Each subject took two 5-ASA tablets, i.e. 500 mg 5-ASA, three times a day for six days, at 8 a.m., 4 p.m. and at midnight except for the first day, where the two first ingestions took place at 9 a.m. and 5 p.m. The injections are shown by arrows on FIG. 5 and 6. The two tablets at 8 a.m. were taken by the fasting subject. Venous blood samples for determination of 5-ASA and 5-AsASA were drawn at intevals throughout the first day (FIG. 5) and at 7.50 the following five days(i.e. before the 8 a.m. tablets were ingested) (FIG. 6). Twenty-four hour urine and faecal smaples were collected on the 6th day for quantitative determination of 5-ASA and 5-AcASA. EVery day throughout the study peroid of six days a single faecal sample was analgzed qualitatively for the presence of 5-ASA and 5-AcASA.

[5] = Faecal excretion and total recovery in healthy volunteers; type: in vivo, human (healthy volunteers); conditions: for daily qualitative faecal analysis: morning samples from day 2 throughout the study
Procedure: as §3

colitis ulcerosa = conditions: cited from earlier work; for therapeutic role on rectal administration: Azad Khan et al.
[6] = cited from earlier work; for amounts observed in the feces: oral 5-ASA, healthy volunteers
[7] = oral 5-ASA; rats; cited from earlier work
[8] = cited from earlier work
[9] = Plasma concentrations in ileostomy patients; type: in vivo, human (ileostomy patients); conditions: half an hour after ingestion of 500 mg 5-ASA
Description: as §1, §2
Six ileostomy patients colectomized because of colitis ulcerosa with intact small bowel were studied. Their distribution as to sex, age, height, body weight, time since colectomy, small bowel transit time (carmine), and acetylator phenotype (v. Fischer and Klotz, op. cit.) (assessed by sulphadimidine) are shown below in talbe I.
A single dose of two tablets of sustained-release 5-ASA i.e. total dose 500 mg, were ingested at 8 a.m. by the fasting patient who thereafter took a normal continental breakfast, lunch at noon, and dinner at 6 p.m. Ileostomy effluents were collected every hour for eight hours (FIGS. 1+2) urine was collected over an 8 hour period and venous blood was drawn at intervals through the first eight hours (FIGS. 3 and 4).

[10] = system: inflamed mucosa in ulcerative colitis; conditions: enema; compared with 5-ASA; cited from earlier work
Crohn's disease = conditions: cited from earlier work
[11] = cited from earlier work; remark: listed apart in the source

For `Nc1ccc(O)c(C(=O)O)c1` [5-ASA, 5-aminosalicylic acid], the “share of collected portion as 5-ASA still retained in the granules” value ([1]; 8 hours, of the 58% collected) was “last third”, the “share of collected portion as free 5-ASA” value ([1]; 8 hours, of the 58% collected) was “one third” and the “detection in ileostomy secretions” value [1] was “no 5-ASA or 5-AcASA could be detected”. For the same molecule, the “excretion rate in ileostomy effluents” value ([1]; 500 mg 5-ASA) was “excreted at constant rates”, the dose excreted at 48 h ([1]; human, ileostomy effluent, po, 500 mg, one patient, collecting up to 48 hours, read-out: further 5-ASA found on expanded collection) was 20% and the dose excreted at 8 h ([1]; human, ileostomy effluent, po, 8 hours after ingestion, 500 mg 5-ASA, read-out: ingested total dose collected in the ileostomy bags) was 58%. For the same molecule, the Fa ([1]; human, small bowel, po, 500 mg, composition of the invention, ileostomy patients, read-out: 5-ASA that may be absorbed from the small bowel) was no more than 50%, the “5-ASA retained in the granules” value ([1]; one patient, collecting up to 48 hours) was “more than one third” and the “5ASA found in urine” value ([2]; 500 mg 5-ASA single oral dose) was “no 5ASA was found except in one case”. For the same molecule, the “5-ASA found in urine, one case” value ([2]; one patient, 500 mg 5-ASA) was 1.4 mg, the concentration at 144 h ([3]; human, plasma, po, day six, all fourteen subjects, 500 mg t.i.d., read-out: total range of 5-ASA plasma concentrations) was 1200 to 2830 ng/mL and the “variation according to acetylator phenotype” value ([3]; slow and fast acetylators) was “did not show a significant variation”. The “urinary excretion of free 5-ASA” value ([4]; 500 mg t.i.d.) was “could not be recorded”, the “faecal content of granules, released and non-released 5-ASA (average total)” value ([5]; analysed 24 hours after collection of the faeces) was 5-10% and the “95% confidence limits of mean faecal excretion of free 5-ASA and 5-AsASA” value ([5]; day 6, steady state) was 378-650 mg per 24 h. For the same molecule, the “total mean faecal excretion of free 5-ASA and 5-AsASA” value ([5]; day 6, steady state, sum of 5-ASA and 5-AsASA, mean) was 514 mg per 24 h, the recovery ([5]; human, urine and faeces, po, day 6, steady state, daily ingested total dose 1500 mg 5-ASA, read-out: mean recovery rate) was 83% and the “daily qualitative faecal analysis” value [5] was “presence”. For the same molecule, the therapeutic effect (colitis ulcerosa; Azad Khan et al. and van Hees et al.) was “also has therapeutic effect”, the “therapeutic role on rectal administration” value (colitis ulcerosa) was “therapeutically active moiety; also recorded: exhibits a useful therapeutic activity like SASP” and the “absorption from the small bowel” value ([6]; free 5-ASA, oral, healthy subjects) was “absorbed from the small bowel in particular the jejunum; also recorded: essentially completely”. For the same molecule, the “amounts observed in the feces” value [6] was “no noticeable amounts”, the “absorption from the small bowel” value [7] was “essentially completely” and the “amounts observed in the feces” value [7] was “no noticeable amounts”. The “absorption from the colon” value ([8]; after SASP) was “the major part of the released 5-ASA is not absorbed”, the “absorption of 5-ASA from the colon in diarrhoea” value ([8]; after SASP, van Hees et al.) was “drastically decreased” and the serum concentrations ([8]; in vivo, po) was “very low serum concentrations”.
In the case of `CC(=O)Nc1ccc(O)c(C(=O)O)c1` [5-AcASA, N-acetyl-5-aminosalicylic acid], the “share of collected portion as free 5-AsASA” value ([1]; 8 hours, of the 58% collected) is reported as “another third”, the “detection in ileostomy secretions” value [1] is reported as “no 5-ASA or 5-AcASA could be detected” and the “excretion rate in ileostomy effluents” value ([1]; 500 mg 5-ASA) is reported as “excreted at constant rates”. The “plasma amounts of 5AsASA” value [9] was “Trace amounts”, the “mean 5-AsASA found in urine” value ([2]; within 8 hours, 500 mg 5-ASA, mean) was 60 mg and the “range of 5-AsASA found in urine” value ([2]; within 8 hours, 500 mg 5-ASA, range) was 42 to 82 mg. For the same molecule, the “detection in plasma and urine” value ([3]; whole study, 500 mg t.i.d. for six days) was “only 5AcASA was detected”, the “95% confidence limits of mean urinary 5-AsASA excretion” value ([4]; day 6, steady state) was 587-887 mg per 24 h and the “mean urinary 5-AsASA excretion during 24 h” value ([4]; day 6, steady state, 24 h, calculated as 5-ASA, mean) was 737 mg. For the same molecule, the “daily qualitative faecal analysis” value [5] was “presence”, the “effect on the inflamed mucosa in ulcerative colitis” value [10] was “resembled 5-ASA in its effect on the inflamed mucosa” and the “amounts observed in the feces” value [6] was “no noticeable amounts”. For the same molecule, the “amounts observed in the feces” value [7] was “no noticeable amounts” and the serum concentrations ([8]; after oral administration of 4 g of SASP, Fischer and Klotz) was “very low serum concentrations”.
For `O=C(O)c1cc(/N=N/c2ccc(S(=O)(=O)Nc3ccccn3)cc2)ccc1O` [SASP, salicylazosulfapyridine], the “effectiveness in Crohn's disease of colon and rectum” value (Crohn's disease; disease extends to or limited to colon and rectum) is given as “proved effective”, the “effectiveness in Crohn's disease limited to the ileum” value (Crohn's disease; disease limited to the ileum) is given as “not proved to be very effective” and the “state on reaching the colon” value ([8]; oral SASP) is given as “reaches the colon intact”. For the same molecule, the “patients allergic to sulfa drugs” value ([11]; excludes SASP treatment) was “up to 10%” and the side effects ([11]; in vivo) was “nausea and vomitting, skin rashes, anemia, arthralgias, headache”.
For `Nc1ccc(S(=O)(=O)Nc2ccccn2)cc1` [SP, sulfapyridine], the “therapeutic role on rectal administration” value (colitis ulcerosa) is listed as “only acts as a "carrier"” and the “absorption from the colon” value ([8]; after SASP) is listed as “highly absorbed from the colon”.
